Assay results published in US20030207843A1, “Treatment of drug-resistant human immunodeficiency virus infection” (priority 1999, published 2003).

Assays:
Assay type in all cases: cell-based
[1] = tested on: HIV-1LAI (wild type, control); assay: p24 reduction assay in MT-2 cells, wild type virus; conditions: Table 6; baseline virus HIV-1LAI passage 0; read-out: EC50
Description: (§1) Cells. MT-2 cells (AIDS Research and Reference Reagent Program, National Institute of Allergy and Infectious Diseases, National Institutes of Health) were maintained in RPMI 1640 supplemented with 10% fetal bovine serum (FBS; JRH Biosciences, Lenexa, Kans.), 10 mM HEPES buffer, 50 IU/ml penicillin and 50 μg/ml streptomycin.
Viruses. Stock virus was prepared by electroporating (BIO-RAD Gene Pulser®, Hercules, Calif.) MT-2 cells (1.3×10^7 cells) with 5-10 μg of plasmid DNA encoding a proviral clone of HIV-1LAI (see Nguyen, et. al., Antimicrob. Agents Chemother. 38:2409-2414, and Peden, et. al., Virology 185: 661-672.). At peak cytopathic effect (generally 5-7 days post-transfection), culture supernatants were harvested and stored at −80° C. Viral infectivity titers were determined in threefold endpoint dilution assays conducted in MT-2 cells (six wells per dilution). The 50% tissue culture infective dose (TCID50) was calculated using the Reed and Muench equation (see Reed, et. al., Am. J. Hyg. 27:493-496).
Antiviral Susceptibility Assays. The antiviral activity of each compound […], followed by incubation in the presence of three-fold serial drug dilutions (3 wells per dilution) (see Mellors, et. al., Antimicrob. Agents Chemother. 39:1087-1092). Five or seven days after infection, culture supernatants were harvested, lysed with 0.5% triton-X 100 and assayed for p24 antigen concentration using a commercial ELISA assay (DuPont, NEN Products, Wilmington, Del.). The antiviral activity of the compounds is expressed as the IC50, which is the concentration required to inhibit 50% of p24 antigen production. The fold-resistance of a test virus is calculated by dividing the IC50 of the test virus by the IC50 of the HIV-1LAI control virus.
Cultures of MT-2 cells infected with either wild type (xxLAI) or with the drug-resistant strains of HIV-1 listed above were treated with lipid analogs of PFA (B-PFA, MB-PFA, or EB-PFA). The μM concentration required to produce 50% inhibition of replication of the drug-resistant strain of HIV (EC50) was determined as shown in Table 1. Drug effects were measured by assaying p24 (a viral protein) in the culture medium.

[2] = tested on: HIV-1LAI selected with DB-PFA, passage 18 (S117T, L214F); assay: Susceptibility of virus selected in vitro with DB-PFA
Description: (§2) Antiviral Susceptibility Assays. The antiviral activity of each compound was determined by inoculating MT-2 cells with HIV-1LAI at a multiplicity of infection (MOI) of 0.01 TCID50/cell, followed by incubation in the presence of three-fold serial drug dilutions (3 wells per dilution) (see Mellors, et. al., Antimicrob. Agents Chemother. 39:1087-1092). Five or seven days after infection, culture supernatants were harvested, lysed with 0.5% triton-X 100 and assayed for p24 antigen concentration using a commercial ELISA assay (DuPont, NEN Products, Wilmington, Del.). The antiviral activity of the compounds is expressed as the IC50, which is the concentration required to inhibit 50% of p24 antigen production. The fold-resistance of a test virus is calculated by dividing the IC50 of the test virus by the IC50 of the HIV-1LAI control virus.
Selection of Resistant Viruses. […] Viral cytopathic effects (CPE) were monitored daily. […] The passaged virus was monitored regularly for a reduction in susceptibility to the compounds by determining the EC50 relative to unpassaged HIV-1LAI (Mellors, et. al., Antimicrob. Agents Chemother. 39:1087-1092). […]

[3] = tested on: HIV-1LAI S117T; assay: p24 reduction assay in MT-2 cells, S117T; conditions: Example 6, recombinant virus encoding S117T
Description: as §1, §2
(§3) Generation of Mutant Recombinant HIV-1. HIV-1 containing the desired mutations were generated by oligonucleotide directed mutagenesis (Altered Sites II, Promega) as previously described (Mellors, et. al., Molecular Pharm. 41:446-451). After mutagenesis, mutant RT was subcloned into the pxxHIV-1LAI cloning vector using the silent XmaI and XbaI restriction sites located at the 5′ and 3′ ends of RT. Clones were DNA sequenced to verify the presence of the desired mutation(s) and electroporated into MT-2 cells as described above to generate infectious mutant recombinant HIV-1.
Mutant RT was generated via oligonucleotide-directed mutagenesis and ligated into the pXXHIV-1LAI cloning vector. Cloning was facilitated by the presence of two silent restriction sites at the 5′ and 3′ ends (Xma1 and Xba1, respectively) of pXXHIV-1LAI RT. Infectious mutant recombinant HIV-1 was generated by electroporating MT-2 cells with mutated pXXHIV-1LAI clones. The presence of the desired mutations was verified by DNA sequencing.
DNA sequencing identified two mutations in RT: S117T and L214F.
(§4) Recombinant viruses containing the mutations selected by invention compounds were also evaluated for their susceptibility to AZT, as shown in Table 8.

[4] = tested on: HIV-1LAI S117T/L214F; assay: p24 reduction assay in MT-2 cells, S117T/L214F; conditions: Example 6; recombinant virus encoding S117T plus L214F
Description: as §1, §2, §3
Mutant RT was generated via oligonucleotide-directed mutagenesis and ligated into the pXXHIV-1LAI cloning vector. […]
as §4

1-O-octadecyl-propanediol-3-PFA [DB-PFA]
EC50 [1]: 830 nM
EC50 ([2]; Table 6, passage 18 (S117T, L214F)): 8.97 µM
Fold resist. ([2]; Table 6, passage 18, relative to passage 0): 10.8
Fold resistance [3]: 10.0 fold
EC50 ([3]; read-out: EC50): 9 µM
Fold resistance [4]: 9.7 fold
